From patent US8742167B2, “Therapeutic formulations based on asiatic acid and selected salts thereof” (Shanghai Institute of Pharmaceutical Industry, priority 2008, dated 2014)
In brackets after ≈: the same amount, converted by molar mass. Several values for one entry are separate records, joined by “and”; a condition that tells them apart may be missing. Identical values can stand only once. Entries after “also recorded” stand apart in the source; their conditions may differ. Like-named read-outs stand apart in the source and are kept apart here. Marks after values point to notes of the source that are not given here.

Columns and labels:
[1] = system: bleomycin-induced pulmonary fibrosis in rats; assay: Lung weight index of bleomycin-induced pulmonary fibrosis in rats; type: in vivo, SD rats; settings: for lung weight ratio (%): (lung weight/body weight)x100%
Experimental: (§1) Male SD rats, body weight 250-300 g. The animals were anesthetized with 3% seconal, laid flat and fixed onto the operating table. The necks of the animals were disinfected with alcohol and cut to expose tracheae. A needle was inserted via the space between tracheal rings centripetally, and 5 mg/kg of bleomycin was injected. The rats were kept upright and rotated, in order to keep the solution uniformly distributed in the lungs. Then the incisions were sutured.
(§2) After the rats regained consciousness, they were randomly grouped. The animals were divided into (i) a group receiving administration on the next day after establishing the model and (ii) a group receiving administration at 7 days after the model was established. Included were 27, 9, and 3 mg/kg p.o.×28 d asiatic acid groups, 0.6 mg/kg p.o.×28 d dexamethasone group, 36 mg/kg p.o.×28 d asiaticoside group, model group, and blank group. Normal saline was administered for the model and blank groups. On the 28th day after asiatic acid and asiaticoside administration, survival and weight ratio of lungs were measured; pathological examination and serological examination were performed.
Effect of on lung weight index of bleomycin-induced pulmonary fibrosis in rats treated with asiatic acid Body weight and lung weight were measured after the rats were sacrificed. Lung weight ratio=(lung weight/body weight)×100%.

Hydroxyproline = assay: Measured value of hydroxyproline in experiment of asiatic acid antagonizing fibrosis; type: in vivo, SD rats; set-up: Measured Value of Hydroxyproline (on 2nd day), single animals / Measured Value of Hydroxyproline (on 2nd day), X / Measured Value of Hydroxyproline (on 7th day), single animals / Measured Value of Hydroxyproline (on 7th day), X: unit not given here; settings: for Measured Value of Hydroxyproline (on 2nd day), X / Measured Value of Hydroxyproline (on 7th day), X: group mean; for Measured Value of Hydroxyproline (on 2nd day), single animals / Measured Value of Hydroxyproline (on 7th day), single animals: individual rats 1-10
Experimental: as §1, §2

[2] = system: pulmonary fibrosis induced by bleomycin in rats; assay: Pathological analysis of lung (HE staining; collagen fiber and elastic fiber dual staining); type: in vivo, SD rats; settings: for collagen fiber and elastic fiber staining / lung pathology, HE staining: administration on the next day after establishing model
Experimental: as §1, §2
The lung tissues were fixed in 10% formalin for 1 week. […] The thickness of sections was […]. Routine hematoxylin-eosin (HE) staining was performed. Dual special staining of collagen fibers and elastic fibers were conducted in order to detect the degree of fibrosis. The staining of the two groups of sections was observed and the results were as follows.

Type III collagen = Type III collagen content, bleomycin rat model; type: in vivo, SD rats; settings: for Type III collagen content X ± SD: treatment starting on Day 7
Experimental: as §1, §2

TFG-β = assay: Serological test (ELISA kit) of TFG-β in rats of bleomycin-induced pulmonary fibrosis; type: in vivo, SD rats; settings: for TFG-β (2nd day) X ± SD / TFG-β (7th day) X ± SD: serum; for TFG-β (2nd day) X ± SD: dosing from 2nd day; for TFG-β (7th day) X ± SD: dosing from 7th day; for serum levels of TGF-β (words): treatment initiated one day or seven days after bleomycin
Experimental: TFG-β Kit, Human 96T ELISA kit imported by Shanghai Jingmei
as §1, §2
(§3) Serum samples were prepared according to a standard protocol (centrifuged 3000 rpm, 10 minutes after collection) and were stored at −20° C. Testing was conducted in accordance with kit instructions.

[3] = Solubility in water and methanol (saturated solutions, HPLC); type: physicochemical
Experimental: Approximately 5 mg of asiatic acid were transferred into a 25 mL volumetric flask, and 1 mL, of methanol was added and mixed well, until the acid had dissolved in the methanol. The volumetric flask then was brought to volume with mobile phase and mixed well. [table] Saturated solutions obtained from starting material and salt in methanol and water were filtered and diluted accordingly with mobile phase. No dilution was performed for asiatic acid in water. Samples were prepared in triplicate except for the sodium salt prepared in methanol, for which two preparations were done.

TNF-α = assay: Serological test (ELISA kit) of TNF-α in rats of bleomycin-induced pulmonary fibrosis; type: in vivo, SD rats; settings: for TNF-α (2nd day) X ± SD / TNF-α (7th day) X ± SD: serum; for TNF-α (2nd day) X ± SD: dosing from 2nd day; for TNF-α (7th day) X ± SD: dosing from 7th day; for serum levels of TNF-α (words): treatment initiated one day or seven days after bleomycin
Experimental: TNF-α Kit, Human 96T ELISA kit imported by Shanghai Jingmei
as §1, §2, §3

[4] = system: bleomycin-induced pulmonary fibrosis in rats; assay: Mortality during experiment days 7-28, bleomycin-induced pulmonary fibrosis in rats; type: in vivo, SD rats
Experimental: as §1, §2

[5] = asiatic acid high dose (27 mg/kg)
[6] = asiatic acid low dose (3 mg/kg)
[7] = asiatic acid middle dose (9 mg/kg)

C[C@H]1[C@H](C)CC[C@]2(C(=O)O)CC[C@]3(C)C(=CC[C@@H]4[C@@]5(C)C[C@@H](O)[C@H](O)[C@@](C)(CO)[C@@H]5CC[C@]43C)[C@H]12 [Asiatic acid, asiatic acid]
lung weight ratio (%) ([1]; asiatic acid 3 mg/kg, started 7 day after model established): 0.83** %
lung weight ratio (%) ([1]; asiatic acid 3 mg/kg, started from the second day): 0.84** %
lung weight ratio (%) ([1]; asiatic acid 9 mg/kg, started 7 day after model established): 0.82** %
lung weight ratio (%) ([1]; asiatic acid 9 mg/kg, started from the second day): 0.78** %
lung weight ratio (%) ([1]; asiatic acid 27 mg/kg, started 7 day after model established): 0.73** %
lung weight ratio (%) ([1]; asiatic acid 27 mg/kg, started from the second day): 0.69** %
lung weight (g) X ± SD ([1]; asiatic acid 3 mg/kg, 28-day administration started 7 day after model established): 2.64 ± 0.33 g
lung weight (g) X ± SD ([1]; asiatic acid 3 mg/kg, 28-day administration started from the second day): 2.74 ± 0.54 g
lung weight (g) X ± SD ([1]; asiatic acid 9 mg/kg, 28-day administration started 7 day after model established): 2.69 ± 0.53 g
lung weight (g) X ± SD ([1]; asiatic acid 9 mg/kg, 28-day administration started from the second day): 2.49 ± 0.40 g
lung weight (g) X ± SD ([1]; asiatic acid 27 mg/kg, 28-day administration started 7 day after model established): 2.52 ± 0.25 g
lung weight (g) X ± SD ([1]; asiatic acid 27 mg/kg, 28-day administration started from the second day): 2.41 ± 0.38 g
lung weight to body weight ratio ([1]; starting on 2nd or 7th day, compared with the model group): significantly lower; also recorded: significantly decrease bleomycin-induced lung fibrosis
Measured Value of Hydroxyproline (on 2nd day), X (Hydroxyproline; asiatic acid 3 mg/kg): 24.31
Measured Value of Hydroxyproline (on 7th day), X (Hydroxyproline; asiatic acid 3 mg/kg): 25.65
Measured Value of Hydroxyproline (on 2nd day), single animals (Hydroxyproline; asiatic acid 3 mg/kg): 19.57 and 28.21 and 24.03 and 19.66 and 25.61 and 26.55 and 26.34 and 24.09 and 19.07 and 29.99
Measured Value of Hydroxyproline (on 7th day), single animals (Hydroxyproline; asiatic acid 3 mg/kg): 20.31 and 27.14 and 28.27 and 26.14 and 28.01 and 29.34 and 25.07 and 25.36 and 25.47 and 21.37
Measured Value of Hydroxyproline (on 2nd day), X (Hydroxyproline; asiatic acid 9 mg/kg): 22.94
Measured Value of Hydroxyproline (on 7th day), X (Hydroxyproline; asiatic acid 9 mg/kg): 25.21
Measured Value of Hydroxyproline (on 2nd day), single animals (Hydroxyproline; asiatic acid 9 mg/kg): 28.26 and 15.05 and 29.14 and 28.98 and 27.69 and 19.03 and 19.46 and 18.22 and 24.01 and 19.56
Measured Value of Hydroxyproline (on 7th day), single animals (Hydroxyproline; asiatic acid 9 mg/kg): 28.19 and 24.39 (2×) and 27.98 and 28.36 and 19.36 and 24.64 and 25.66 and 29.47 and 19.66
Measured Value of Hydroxyproline (on 2nd day), X (Hydroxyproline; asiatic acid 27 mg/kg): 21.65
Measured Value of Hydroxyproline (on 7th day), X (Hydroxyproline; asiatic acid 27 mg/kg): 23.40
Measured Value of Hydroxyproline (on 2nd day), single animals (Hydroxyproline; asiatic acid 27 mg/kg): 17.64 and 25.36 and 25.18 and 24.36 and 20.19 and 18.6 and 19.36 and 20.97 and 27.69 and 17.11
Measured Value of Hydroxyproline (on 7th day), single animals (Hydroxyproline; asiatic acid 27 mg/kg): 19.68 and 19.47 and 20.14 and 24.36 (2×) and 27.14 and 25.1 and 26.38 and 27.66 and 19.74
serum levels of hydroxyproline (Hydroxyproline; overall statement): significantly decrease bleomycin-induced fibrosis
collagen fiber and elastic fiber staining [2, 5]: only a little fibroplastic proliferation
lung pathology, HE staining [2, 5]: mild infiltration of inflammatory cells
efficacy by pathology compared with asiaticoside group ([2]; asiatic acid high-dose group): better than in the asiaticoside group
lung pathology, HE staining [2, 6]: mild inflammation and alveolitis
collagen fiber and elastic fiber staining [2, 7]: significantly milder than that of the model group
lung pathology, HE staining [2, 7]: mild infiltration of inflammatory cells
bleomycin-induced lung fibrosis by lung histopathology ([2]; overall statement): effective against bleomycin-induced pulmonary fibrosis, on a dose-response basis; also recorded: reduces the extent of bleomycin-induced lung fibrosis
lung fibrosis by histopathology compared with dexamethasone ([2]; treatment initiated seven days after bleomycin insult): more effective than dexamethasone
Type III collagen content X ± SD (Type III collagen; asiatic acid Medium dose (9 mg/kg)): 0.515 ± 0.398
Type III collagen content X ± SD (Type III collagen; [5]): 0.387 ± 0.287
Type III collagen content X ± SD (Type III collagen; [6]): 0.764 ± 0.826
serum levels of type III collagen (Type III collagen; overall statement): significantly decrease bleomycin-induced fibrosis
TFG-β (2nd day) X ± SD (TFG-β; asiatic acid 3 mg/kg): 0.726 ± 0.220 OD value
TFG-β (7th day) X ± SD (TFG-β; asiatic acid 3 mg/kg): 1.494 ± 0.273 OD value
TFG-β (2nd day) X ± SD (TFG-β; asiatic acid 9 mg/kg): 0.642 ± 0.139 OD value
TFG-β (7th day) X ± SD (TFG-β; asiatic acid 9 mg/kg): 1.165 ± 0.412 OD value
TFG-β (2nd day) X ± SD (TFG-β; asiatic acid 27 mg/kg): 0.653 ± 0.157 OD value
TFG-β (7th day) X ± SD (TFG-β; asiatic acid 27 mg/kg): 1.049 ± 0.363 OD value
serum levels of TGF-β (words) (TFG-β): significantly reduces
serum levels of TGF-β (words) (TFG-β; listed as asiatic acid): can lower
Solubility ([3]; MeOH, single preparations (inj 1A-1C), listed as Asiatic acid raw material): 37200 µg/mL and 34870 µg/mL
solubility in methanol ([3]; methanol): good solubility
Solubility ([3]; methanol, organic solvent or mixture, thermodynamic from solid, MeOH, single preparations (inj 1A-1C), read-out: Solubility): 27200 µg/mL (≈ 55700 µM)
Solubility ([3]; water, thermodynamic from solid, water, read-out: Solubility in water): 30 µg/mL (≈ 61.4 µM)
Solubility ([3]; water, thermodynamic from solid, water, single preparations (inj 1A-1C), read-out: Solubility): 30 µg/mL (≈ 61.4 µM)
Solubility ([3]; water, single preparations (inj 1A-1C), listed as Asiatic acid raw material): 40 µg/mL and 20 µg/mL
TNF-α (2nd day) X ± SD (TNF-α; asiatic acid 3 mg/kg): 0.055 ± 0.008 OD value
TNF-α (7th day) X ± SD (TNF-α; asiatic acid 3 mg/kg): 0.084 ± 0.018 OD value
TNF-α (2nd day) X ± SD (TNF-α; asiatic acid 9 mg/kg): 0.056 ± 0.016 OD value
TNF-α (7th day) X ± SD (TNF-α; asiatic acid 9 mg/kg): 0.096 ± 0.036 OD value
TNF-α (2nd day) X ± SD (TNF-α; asiatic acid 27 mg/kg): 0.050 ± 0.007 OD value
TNF-α (7th day) X ± SD (TNF-α; asiatic acid 27 mg/kg): 0.047 ± 0.013 OD value
serum levels of TNF-α (words) (TNF-α): significantly reduces
serum levels of TNF-α (words) (TNF-α; listed as asiatic acid): can lower
remaining samples at the end of study ([4]; Asiatic acid-H (27 mg/kg p.o. x 28 d), dosing started on 2nd day, 13 on day 7): 13
number of deaths ([4]; Asiatic acid-H (27 mg/kg p.o. x 28 d), dosing started on 2nd day, days 7-28): 0
number of deaths ([4]; Asiatic acid-H (27 mg/kg p.o. x 28 d), dosing started on 7th day): 0
remaining samples at the end of study ([4]; Asiatic acid-H (27 mg/kg p.o. x 28 d), dosing started on 7th day, 13 in the group): 13
remaining samples at the end of study ([4]; Asiatic acid-L (3 mg/kg p.o. x 28 d), dosing started on 2nd day, 13 on day 7): 11
number of deaths ([4]; Asiatic acid-L (3 mg/kg p.o. x 28 d), dosing started on 2nd day, days 7-28): 2
number of deaths ([4]; Asiatic acid-L (3 mg/kg p.o. x 28 d), dosing started on 7th day): 1
remaining samples at the end of study ([4]; Asiatic acid-L (3 mg/kg p.o. x 28 d), dosing started on 7th day, 13 in the group): 12
remaining samples at the end of study ([4]; Asiatic acid-M (9 mg/kg p.o. x 28 d), dosing started on 2nd day, 14 on day 7): 13
number of deaths ([4]; Asiatic acid-M (9 mg/kg p.o. x 28 d), dosing started on 2nd day, days 7-28): 1
number of deaths ([4]; Asiatic acid-M (9 mg/kg p.o. x 28 d), dosing started on 7th day): 1
remaining samples at the end of study ([4]; Asiatic acid-M (9 mg/kg p.o. x 28 d), dosing started on 7th day, 13 in the group): 12
survival / bleomycin-induced death ([4]; rats treated with bleomycin, treatment initiated one day or seven days after bleomycin): largely prevented bleomycin-induced death; also recorded: significantly enhance survival
